Numbers after ± are expanded uncertainties.
Assay: xn = mol fraction of the nth substance listed
Conditions: 101 kPa, Liquid; for speed of sound: Frequency=2.75 MHz, Pulse-echo method; for mass density: Vibrating tube method

CCCC[n+]1ccn(C)c1.O=S(=O)([N-]S(=O)(=O)C(F)(F)F)C(F)(F)F + C1CCOC1
Conditions	mass density, 293.15 K [kg/m3]	mass density, 298.15 K [kg/m3]	mass density, 303.15 K [kg/m3]	mass density, 308.15 K [kg/m3]	speed of sound, 293.15 K [m/s]	speed of sound, 298.15 K [m/s]	speed of sound, 303.15 K [m/s]	speed of sound, 308.15 K [m/s]
x1 = 0.0507	981.03 ± 0.63	975.68 ± 0.62	970.55 ± 0.62	965.26 ± 0.63	1276.2 ± 1.2	1254.6 ± 1.2	1233.2 ± 1.2	1212 ± 1.2
x1 = 0.124	1080.62 ± 0.49	1075.39 ± 0.49	1070.15 ± 0.49	1064.96 ± 0.49	1257.3 ± 1.2	1238.5 ± 1.2	1219.9 ± 1.2	1201.5 ± 1.2
x1 = 0.1963	1153.02 ± 0.34	1147.88 ± 0.33	1142.73 ± 0.33	1137.6 ± 0.34	1246.9 ± 1.2	1230 ± 1.2	1213.2 ± 1.2	1196.6 ± 1.2
x1 = 0.3526	1258.69 ± 0.3	1253.67 ± 0.3	1248.66 ± 0.3	1243.66 ± 0.3	1236.8 ± 1.2	1222.4 ± 1.2	1208 ± 1.2	1193.8 ± 1.2
x1 = 0.4962	1321.98 ± 0.3	1317.04 ± 0.3	1312.1 ± 0.3	1307.18 ± 0.3	1234.1 ± 1.3	1220.9 ± 1.3	1207.8 ± 1.3	1194.9 ± 1.3
x1 = 0.6378	1366.6 ± 0.36	1361.72 ± 0.36	1356.84 ± 0.35	1351.97 ± 0.35	1233.5 ± 1.3	1221 ± 1.3	1208.7 ± 1.3	1196.5 ± 1.3
x1 = 0.8047	1405.56 ± 0.46	1400.72 ± 0.46	1395.89 ± 0.46	1391.07 ± 0.45	1235.6 ± 1.4	1223.8 ± 1.4	1212.2 ± 1.4	1200.7 ± 1.4
x1 = 0.9143	1425.59 ± 0.54	1420.79 ± 0.54	1415.99 ± 0.54	1411.2 ± 0.53	1236.9 ± 1.5	1225.4 ± 1.5	1214.1 ± 1.5	1203 ± 1.5
x1 = 1	1439.23 ± 0.61	1434.44 ± 0.61	1429.65 ± 0.6	1424.88 ± 0.6	1237.9 ± 1.5	1226.7 ± 1.5	1215.6 ± 1.5	1204.6 ± 1.5

CCCC[n+]1ccn(C)c1.O=S(=O)([N-]S(=O)(=O)C(F)(F)F)C(F)(F)F + CC#N
Conditions	mass density, 293.15 K [kg/m3]	mass density, 298.15 K [kg/m3]	mass density, 303.15 K [kg/m3]	mass density, 308.15 K [kg/m3]	mass density, 313.15 K [kg/m3]	speed of sound, 293.15 K [m/s]	speed of sound, 298.15 K [m/s]	speed of sound, 303.15 K [m/s]	speed of sound, 308.15 K [m/s]	speed of sound, 313.15 K [m/s]
x1 = 0.0506	936.84 ± 0.95	931.39 ± 0.94	925.93 ± 0.94	920.45 ± 0.94	914.95 ± 0.96	1259.9 ± 1.2	1241.7 ± 1.2	1223.7 ± 1.2	1205.7 ± 1.2	1187.9 ± 1.2
x1 = 0.1242	1078.45 ± 0.63	1073.07 ± 0.63	1067.67 ± 0.63	1062.27 ± 0.63	1056.87 ± 0.64	1241 ± 1.2	1224.8 ± 1.2	1208.7 ± 1.2	1192.7 ± 1.2	1176.8 ± 1.2
x1 = 0.2041	1175.48 ± 0.39	1170.19 ± 0.38	1164.9 ± 0.38	1159.61 ± 0.38	1154.32 ± 0.4	1235 ± 1.2	1220.1 ± 1.2	1205.3 ± 1.2	1190.6 ± 1.2	1176 ± 1.2
x1 = 0.341	1275.66 ± 0.31	1270.52 ± 0.31	1265.38 ± 0.31	1260.25 ± 0.31	1255.12 ± 0.32	1234 ± 1.3	1220.4 ± 1.2	1206.9 ± 1.2	1193.5 ± 1.2	1180.3 ± 1.2
x1 = 0.5016	1343.88 ± 0.33	1338.86 ± 0.32	1333.85 ± 0.32	1328.85 ± 0.32	1323.86 ± 0.32	1235.1 ± 1.3	1222.4 ± 1.3	1209.9 ± 1.3	1197.5 ± 1.3	1185.2 ± 1.3
x1 = 0.6525	1384.46 ± 0.39	1379.53 ± 0.39	1374.6 ± 0.38	1369.69 ± 0.38	1364.79 ± 0.38	1236.2 ± 1.4	1224.1 ± 1.4	1212.1 ± 1.4	1200.3 ± 1.4	1188.6 ± 1.4
x1 = 0.7861	1410.16 ± 0.47	1405.28 ± 0.46	1400.42 ± 0.46	1395.58 ± 0.45	1390.74 ± 0.45	1237.1 ± 1.4	1225.4 ± 1.4	1213.8 ± 1.4	1202.4 ± 1.4	1191 ± 1.4
x1 = 0.9575	1434.22 ± 0.58	1429.41 ± 0.58	1424.61 ± 0.57	1419.83 ± 0.57	1415.06 ± 0.56	1237.9 ± 1.5	1226.6 ± 1.5	1215.4 ± 1.5	1204.3 ± 1.5	1193.4 ± 1.5
x1 = 1	1439.23 ± 0.61	1434.44 ± 0.61	1429.65 ± 0.6	1424.88 ± 0.6	1420.12 ± 0.59	1237.9 ± 1.5	1226.7 ± 1.5	1215.6 ± 1.5	1204.6 ± 1.5	1193.7 ± 1.5

From the NIST ThermoML archive (doi:10.1021/je400781b)
